Tests used:
[1] = 93 kPa, Liquid; for viscosity: Concentric cylinders viscometry; for mass density: Vibrating tube method
[2] = molar heat capacity at constant pressure; conditions: Liquid, Flow calorimetry

c1ccc(Oc2ccccc2)cc1 [diphenyl ether]
[1]
Conditions	mass density [kg/m3]	viscosity [mPa·s]
303.15 K	1065.5	3.33
308.15 K	1061.2	2.96
313.15 K	1056.9	2.65
323.15 K	1048.2	2.17
333.15 K	1039.6	1.82
343.15 K	1030.9	1.54
353.15 K	1022.3	1.33
363.15 K	1013.7	1.16
373.15 K	1005.2	1.03

molar heat capacity at constant pressure [J/K/mol], [2]
Conditions	100 kPa	5000 kPa	10000 kPa	15000 kPa	20000 kPa	25000 kPa
313.15 K	274.37	273.52	273.18	272.5	272.16	–
333.15 K	286.97	285.95	284.93	284.59	283.39	282.71
353.15 K	299.05	298.03	296.84	296.33	295.48	294.63
